Experimental data from patent publication US20240269128A1, “COMPOUNDS FOR TREATING OR PREVENTING ALZHEIMER'S DISEASE” (THE UNITED STATES OF AMERICA, as represented by the …, priority 2021, published 2024).

What was measured:
STAT3 [1] = molecular target: T1, STAT3 (Homo sapiens, UniProt P40763); assay: Western blot of p-STAT3 in tau phosphorylation assay; type: cell-based
T1 construct: endogenous in cells; host or cells: HMC3 (ATCC CRL-3304), 1321N1 (Sigma-Aldrich), SK-N-BE(2)-M17 (ATCC CRL-2267)
Protocol: Western blot analyses: Samples for western blot analyses were prepared from 3 assays which provided evidence of HCQ-associated rescue (i.e., Ab1-42 clearance, tau phosphorylation, and LPS-induced neuroinflammation). Samples were prepared identically as described above in section: Effect of HCQ on AD-related phenotypes in cell culture, and scaled up to 24-well format to allow for adequate sample volume. After HCQ treatment, cells were washed once with PBS and harvested in 50 μl 50 mM HEPES+2% SDS lysis buffer. The extracts were then boiled at 95° C. for 5 mins. Analytic methods were identical to those described above in Example 4.
Statistical analyses: Statistical analysis was performed using STATA 16.1. Group differences were evaluated using two-sample t-tests (parametric) to calculate differences in p-STAT3 levels between HCQ treated and control samples. We additionally used the Wilcoxon rank-sum test (non-parametric) to confirm that results were robust to distributional assumptions. Significant differences were indicated as p<0.05.

[2] = test system: Alzheimer's disease and related dementia (ADRD) in rheumatoid arthritis patients; assay: Medicare claims cohort study of incident ADRD, HCQ vs methotrexate; type: in vivo, human
Excerpt: The full study protocol for patient-level analysis in Medicare claims was pre-registered on clinicaltrials.gov prior to data analysis (NCT04691505) and contains detailed information on implementation including all codes that were used to identify study variables to allow future replication. The following sections summarize key methodologic details. Data source: Medicare Fee-For-Service claims data from 2007 through 2017 were used. Medicare Part A (hospitalizations), B (medical services), and D (prescription medications) claims are available for research purposes through the Centers for Medicare and Medicaid Services. A signed data use agreement with the CMS was available and the Brigham and Women's Hospital's Institutional Review Board approved this study. Study cohort: A new user, active comparator, observational cohort study design comparing methotrexate to hydroxychloroquine was employed. The patients were required to have continuous enrollment in Medicare parts A, B, and D during the baseline period of 365 days before initiation date of methotrexate or hydroxychloroquine, which was defined as the cohort entry date. Patients were required to have ≥1 diagnosis codes of rheumatoid arthritis during the baseline period but no prior use of any disease modifying antirheumatic treatments. Patients with existing diagnosis of Alzheimer's disease and related dementia (ADRD) any time prior to and including cohort entry date were excluded to focus on incident events. Patients with nursing home admission in 365 days prior to and including cohort entry date also were excluded as medication records for short nursing home stays are unavailable in Medicare claims. Outcome measurement: The endpoint of ADRD was identified based on diagnosis codes, recorded on 1 inpatient claim or 2 outpatient claims, of Alzheimer's disease, vascular dementia, senile, presenile, or unspecified dementia, or dementia in other diseases classified elsewhere. […] Alternative analytic approaches: To accommodate various uncertainties involved in pharmacoepidemiologic investigations focused on ADRD risk, the following alternative analyses were employed. Analysis 1—‘As-treated’ follow-up approach: In this approach, the follow-up started on the day following the cohort entry date and continued until treatment discontinuation or switch (to comparator treatment), insurance disenrollment, death, or administrative endpoint (December 2017). A 90-day ‘grace period’ after the end of the expected days-supply of the most recently filled prescription was considered to define the treatment discontinuation date to accommodate for suboptimal adherence during treatment periods. […] This follow-up approach addresses concerns related to informative censoring if patients discontinue or if physicians de-prescribe the treatments under consideration because of memory problems associated with ADRD, but the diagnosis is not recorded in the electronic healthcare records until after the end of follow-up due to treatment-related censoring. Analysis 3—incorporating a 6-month ‘symptoms to diagnosis’ period: In this approach, an outcome date was assigned that was 6 months before the first recorded ADRD date and excluded last 6 months of follow-up for those who are censored without an event to account for the possibility that ADRD symptoms likely appear some time before a formal diagnosis is recorded in insurance records, which leads to misclassification of ADRD onset. […]

[3] = albino rats; cited from earlier work
[4] = in vivo; cited from earlier work
STAT3 [5] = molecular target: STAT3 (Mus musculus, UniProt P42227); assay: Western blot of total and phosphorylated STAT3 in mouse embryonic cortical neurons; type: cell-based; parameters: hippocampal homogenate samples across four groups; from tissue; host or cells: acute hippocampal slices from WT and APP/PS1 (APPSwe/PS1dE9) mice; details: 50 μM, 48 hours
Protocol: For primary cultures of embryonic cortical neurons, timed-pregnant mice were obtained from The Jackson Laboratory. Cultures were prepared from embryonic day (E) 14.5 cerebral tissues as described (Zhao et al., Cell Death Differ 2019, 26:1600-1614). Pregnant mice were killed by fast cervical dislocation, embryos and embryo brains were removed, and the cerebral hemisphere was extracted in sterile Hank's balanced saline solution (HBSS). Brain tissues were incubated in 0.25% trypsin-EDTA for 30 min at 37° C.and then transferred to DMEM containing 10% fetal bovine serum (DMEM+). The tissues were transferred to neurobasal (NB) medium containing B27 supplements, 2 mM L-glutamine, antibiotics and antimycotics (Gibco), and 1 mM HEPES and dissociated by trituration using a fire-polished Pasteur pipet. The dissociated cells were seeded into polyethyleneimine-coated plastic culture dishes at a density of 60,000 cells/cm^2 and cultured in the same B27-containing NB medium. Experiments were started 5 days later.
HCQ treatment: Treatment with hydroxychloroquine Sulfate (Selleckchem, Catalog No.S4430) was performed at 50 μM concentration. […]
Statistical analysis: Digitized images were obtained, processed, and quantified with ImageLab version 6.1 (BioRad Laboratories).

STAT3 (Mus musculus, UniProt P42227), sequence (P42227 whole entry): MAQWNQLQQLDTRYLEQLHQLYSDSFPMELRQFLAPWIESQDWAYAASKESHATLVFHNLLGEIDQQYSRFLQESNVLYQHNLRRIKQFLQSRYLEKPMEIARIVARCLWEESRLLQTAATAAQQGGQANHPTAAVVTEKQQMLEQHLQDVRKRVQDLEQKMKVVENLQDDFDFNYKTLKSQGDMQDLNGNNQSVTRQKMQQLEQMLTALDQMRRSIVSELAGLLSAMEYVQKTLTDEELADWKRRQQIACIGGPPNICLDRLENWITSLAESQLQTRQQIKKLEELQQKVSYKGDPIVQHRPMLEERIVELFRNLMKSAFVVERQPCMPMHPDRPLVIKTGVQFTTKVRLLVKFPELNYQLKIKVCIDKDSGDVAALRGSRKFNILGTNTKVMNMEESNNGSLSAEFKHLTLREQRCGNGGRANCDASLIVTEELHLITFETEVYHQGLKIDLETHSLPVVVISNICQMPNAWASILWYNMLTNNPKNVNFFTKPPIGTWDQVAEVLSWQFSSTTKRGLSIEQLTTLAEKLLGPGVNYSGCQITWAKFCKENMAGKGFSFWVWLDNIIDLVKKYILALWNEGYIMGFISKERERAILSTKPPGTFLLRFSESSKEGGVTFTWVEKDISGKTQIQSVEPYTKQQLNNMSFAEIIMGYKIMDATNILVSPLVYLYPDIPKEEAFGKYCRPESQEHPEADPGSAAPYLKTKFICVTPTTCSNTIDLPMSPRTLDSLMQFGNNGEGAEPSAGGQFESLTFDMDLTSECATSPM
T1 sequence (P40763 whole entry): as the sequence (P42227 whole entry) above, with D760E counted along it

CCN(CCO)CCCC(C)Nc1ccnc2cc(Cl)ccc12 (centres unmarked) [HCQ, hydroxychloroquine]
p-STAT3 (Tyr705) (STAT3 [1]; 25 μM and 2.5 μM, relative to VC): lowered
p-STAT3 (Ser727) (STAT3 [1]; 25 μM, 2.5 μM and 0.25 μM): lowered
lower risk of ADRD ([2]; Analysis 1, as-treated, vs MTX initiators): 8%
lower risk of ADRD ([2]; Analysis 2, as-started, 6-month induction period): 13%
lower risk of ADRD ([2]; Analysis 3, 6-month symptom to claims period): 16%
cumulative incidence of ADRD ([2]; after approximately 2 years of treatment, compared to MTX, all four analyses): lower cumulative incidence
lowering of incident AD ([2]; relative to methotrexate, across analyses): 8-16%
Kp brain/plasma [3]: 4-31
serious side effects of retinopathy and cardiac toxicity [4]: relatively rare
p-STAT3 (Tyr705 and Ser727) (STAT3 [5]): reduced
total STAT3 (STAT3 [5]): without alteration
